The test system of the assay is IL-2 production. The experiment in a line: Inhibition of IL-2 production in PHA-activated Jurkat cells (ELISA). The assay is classed as cell-based. The following applies: Homo sapiens, 20 h, PHA 2.5 μg/mL, IL-2 ELISA, values given as ranges. The method, then:
Jurkat cells were placed in a 96 well plate (0.5 million cells per well in 1% FBS medium) then a test compound of this invention was added at different concentrations. After 10 minutes, the cells were activated with PHA (final concentration 2.5 μg/mL) and incubated for 20 hours at 37° C. under CO2. The final volume was 200 μL. Following incubation, the cells were centrifuged and the supernatants collected and stored at −70° C. prior to assaying for IL-2 production. A commercial ELISA kit (IL-2 Eli-pair, Diaclone Research, Besancon, France) was used to detect production of IL-2, from which dose response curves were obtained. The IC50 value was calculated as the concentration at which 50% of maximum IL-2 production after stimulation was inhibited versus a non-stimulation control. Inhibition of other cytokines, such as IL-4, IL-5, IL-13, GM-CSF, TNF-α, and INF-γ, can be tested in a similar manner using a commercially available ELISA kit for each cytokine.
Regarding `O=C(Nc1c(F)cccc1F)c1cnc2c(c1)CCCc1ccc(-c3cccnc3)cc1-2` [Compound 45], the IC50 (usually the midpoint of a concentration-inhibition curve) was in the range of 100 to 250 nM. Regarding `O=C(Nc1ccc(F)c(F)c1F)c1nc2c(s1)-c1cc(-n3ccnc3)ccc1CCC2` [Compound 124], the IC50 fell in the range of 250 to 500 nM.

In the case of `Cc1nccn1-c1ccc2c(c1)-c1sc(C(=O)Nc3c(F)cccc3F)nc1CCC2` [Compound 115], the half-maximal inhibitory concentration (IC50) lay within 250 to 500 nM. The figure for `O=C(Nc1c(F)cccc1F)c1cc2c(s1)-c1cc(Br)ccc1CCC2` [Compound 1] is at most 30 nM. The result for `O=C(Nc1c(F)cccc1F)c1nc2c(s1)-c1cc(-n3ccnc3)ccc1CCC2` [Compound 113] reads at most 30 nM. The result for `CCc1cn(-c2ccc3c(c2)-c2ncc(NC(=O)c4c(F)cccc4F)nc2CCC3)cn1` [Compound 134] reads at most 30 nM; that for `O=C(Nc1cnc2c(n1)CCCC1=C2CN(c2nccs2)CC1)c1c(F)cccc1F` [Compound 91], 30 to 100 nM. `O=C(Nc1c(F)cc(F)cc1F)c1nc2c(s1)-c1cc(-n3ccnc3)ccc1CCC2` [Compound 130] gave an IC50 of 30 to 100 nM. Turning to `O=C(Nc1c(F)cccc1F)c1nc2c(s1)-c1cc(-n3cnnc3)ccc1CCC2` [Compound 121], the IC50 is 30 to 100 nM. For the molecule `Cc1cnccc1NC(=O)c1nc2c(s1)-c1cc(-n3ccnc3)ccc1CCC2` [Compound 132], the IC50 fell in the range of 100 to 250 nM. Regarding `Cc1nc2c(cc1C(=O)Nc1c(F)cccc1F)CCCc1ccc(-c3cccnc3)cc1-2` [Compound 48], the concentration for half-maximal inhibition (IC50) is 100 to 250 nM. The result for `COc1ccc2c(c1)CCCc1sc(NC(=O)c3c(F)cccc3F)nc1-2` [Compound 42] reads over 1000 nM.

The molecule `O=C(Nc1c(F)ccc(F)c1F)c1nc2c(s1)-c1cc(-n3ccnc3)ccc1CCC2` [Compound 126] yielded an IC50 of at most 30 nM.

As to `Cc1cn(-c2ccc3c(c2)-c2sc(C(=O)Nc4c(F)cccc4F)nc2CCC3)cn1` [Compound 117], the IC50 was 30 to 100 nM. The figure for `O=C(Nc1ccc(F)cc1F)c1nc2c(s1)-c1cc(-n3ccnc3)ccc1CCC2` [Compound 122] is 100 to 250 nM. The figure for `O=C(Nc1nc2c(s1)CCCc1ccc(Br)cc1-2)c1c(F)cccc1F` [Compound 43] is over 1000 nM; for `O=C(Nc1c(F)cccc1F)c1cc2c(s1)-c1cc(-c3cccnc3)ccc1CCC2` [Compound 2] it is at most 30 nM.

The record behind these values is patent US20110052643A1, “COMPOUNDS FOR INFLAMMATION AND IMMUNE-RELATED USES” (Synta Pharmaceuticals Corp., priority 2008, published 2011).
